Laboratory results published in patent US10307451B2, “Phytoestrogen product of red clover and pharmaceutical uses thereof” (Sinoveda Canada Inc., priority 2010, dated 2019).
≈ marks a conversion by molar mass, not a printed value. Where two headings read alike, the source gives them in different places.

Experiments:
[1] = Plasma protein binding of absorbable aglycones; type: in vitro ADME
Excerpt: (§1) The protocol used by (Moon, Sagawa et al. 2006) was used for measuring plasma protein binding of the absorbable aglycones. Parameters have been used for PBPK simulation. Conjugates of Biochanin A, formononetin, Genistein, Daidzein and Equol are predominant components in plasma. The respective aglycones constitute less than 5% of the total concentration.

[2] = system: human intestinal microsomes; experiment: Metabolism of isoflavone mixtures by human intestinal microsomes; type: in vitro ADME
Procedure: (§2) Human liver microsomes, intestinal microsomes, and hepatocytes of human female origin were purchased from XenoTech. All chemicals were purchased from Sigma-Aldrich. […] The final DMSO in buffer or media was kept at 0.1%. Protocols supplied by XenoTech Inc., the supplier, were used for glucuronidation with microsomal incubation, and hepatocyte incubation. Samples were analyzed using LC/MS.

[3] = system: human intestinal microflora; experiment: Biotransformation by human intestinal bacteria (fecal microflora incubation); type: in vitro ADME; settings: for isoflavone left in the incubation media: human, 120 h, 100 µM
Procedure: Fresh human fecal samples were collected from 4 volunteers. Five grams of each were pooled together and mixed well with 30 mL BHI culture medium. The fecal suspension was centrifuged at 200 g for 5 min and supernatant was decanted and centrifuged at 5,000 g for another 30 min. The resultant precipitate was re-suspended with 10 mL BHI medium to produce intestinal micro flora solution.
As the biotransformation of drugs by human intestinal bacteria was determined in a 5 mL incubation system containing 250 μL intestinal microflora solution, 50 μL stock solution in DMSO in BHI medium. […] Zero-minute incubations served as controls. Reactions were stopped by extracting samples with 15 ml of ethanol twice. The two ethanol extractions were combined, dried and re-suspended in 80% methanol for HPLC/MS analysis.

human hepatocytes = experiment: Metabolism of isoflavone mixtures by human hepatocytes; type: in vitro ADME
Procedure: as §2

[4] = CaCo-2 permeability of isoflavones in a Red clover extract; settings: human
in vitro = settings: human, Caco-2
Raw264.7 cells = experiment: Osteoclast differentiation in Raw264.7 cells (ACP/cell number); type: cell-based; settings: 10 μM total isoflavones, MCSF and RANKL stimulated
Procedure: Effects of isoflavones on the differentiation of osteoblast in MC3T3 cells followed Ge et al., 2006 and osteoclast differentiation in Raw264.7 cells followed Garcia Palacios et al., 2005. Cell numbers were measured with CellTag from Li-Cor Biosciences. Both activities of alkaline and acid phosphatase were measured with a plate reader at 405 nm. Isoflavones were first dissolved in DMSO and stock solutions were prepared at 10 mM and the final concentration of total isoflavones in test solution was 10 μM. Osteoblast and osteoclast differentiations were quantified by measuring activities of alkaline phosphatase (ALP) and acidic phosphatase (ACP). ALP is highly expressed by the mature osteoblasts and ACP is expressed by osteoclasts. Values of integrated intensity of fluorescence from […] staining serve as a correction factor for the difference in cell numbers. Therefore, ALP/cell number and ACP/cell number ratios are used to quantify osteoblast and osteoclast activities. Raw246.7 cells were treated with MCSF and RANKL to stimulate the differentiation of osteoclasts. Isoflavones were added at the final concentration of 10 μM to examine their ability to inhibit differentiation.

Caco-2 = settings: human
[5] = Solubility interactions of isoflavones in fasted simulated intestinal fluid (FaSSIF); type: physicochemical; settings: for Biochanin A saturation concentration: fasted media, 37° C.
Procedure: Isoflavones: daidzein, genistein, formononetin and Biochanin A were obtained from Indofine. Simulated intestinal fluid buffer powder mimicking a fasted state (FaSSIF) was obtained from Biorelevant SIF media, Biorelevant.com, Switzerland.
To prepare accurate concentrations of isoflavones in microtubes, stock solutions of individual isoflavones were prepared at 1 mg/mL in methanol. The amount of isoflavone designated to be held constant was provided at a concentration that well exceeded (about 20×) the saturation concentration for that isoflavone. The appropriate amount of stock was transferred to each microtube and the material was dried down in a vacuum centrifuge.
The competing isoflavone was prepared at 0, 1, 5, 10, 50, 100, 200 μg/mL (FIGS. 11 and 12) and, in the case of formononetin, 400 μg/mL (FIG. 9).
In the case of formononetin competition with Biochanin A, the amount of formononetin was held constant at 50 μg in 1 ml buffer (saturation concentration for formononetin in FaSSIF is about 2 μg/mL). The competing Biochanin A was prepared at 0, 1, 5, 10, 50, 100 and 200 μg/mL (FIG. 10).
Each tube was then reconstituted with 1 mL of FaSSIF buffer, sonicated and allowed to equilibrate with occasional agitation for 24 hours at 37° C. This produced a solution that contained saturated isoflavone concentrations mimicking mammalian intestinal conditions.
At the end of 24 hours each tube containing isoflavones and FaSSIF buffer was briefly centrifuged at 5000 rpm in a microcentrifuge held at 37° C. (2 minutes). A portion of the supernatant (400 μL) was then immediately placed in a centrifugal filter unit (UltraFree-MC-GV […]) and the sample filtered by centrifugation (8000 rpm, 5 minutes, 37° C.). Upon filtration 200 μL filtrate was immediately placed in a microtube and 200 μL methanol added to ensure that the isoflavones remained in solution. The sample was mixed and 200 μL of the mixture was transferred to injection vials provided with 200 μL polypropylene injection inserts.
The samples were analyzed by HPLC with diode array detection at 260 nm using 20 μL injections.

plasma protein = experiment: Plasma protein binding of absorbable aglycones; type: in vitro ADME
Excerpt: as §1

MC3T3 cells = experiment: Osteoblast differentiation of MC3T3 cells (ALP/cell number); type: cell-based; settings: 10 μM total isoflavones, 1 week
Procedure: Effects of isoflavones on the differentiation of osteoblast in MC3T3 cells followed Ge et al., 2006 and osteoclast differentiation in Raw264.7 cells followed Garcia Palacios et al., 2005. Cell numbers were measured with CellTag from Li-Cor Biosciences. Both activities of alkaline and acid phosphatase were measured with a plate reader at 405 nm. Isoflavones were first dissolved in DMSO and stock solutions were prepared at 10 mM and the final concentration of total isoflavones in test solution was 10 μM. Osteoblast and osteoclast differentiations were quantified by measuring activities of alkaline phosphatase (ALP) and acidic phosphatase (ACP). ALP is highly expressed by the mature osteoblasts and ACP is expressed by osteoclasts. Values of integrated intensity of fluorescence from […] staining serve as a correction factor for the difference in cell numbers. Therefore, ALP/cell number and ACP/cell number ratios are used to quantify osteoblast and osteoclast activities. Confluence MC3T3 cells were treated with 10 μM of isoflavones for 1 week and then the activity of alkaline phosphatase (ALP) was measured as an indicator of differentiation. […] To examine if there were any synergistic effects, two isoflavones were mixed in a 1:9 ratio and tested in the final concentration of 10 μM. […]

SMILES	fraction unbound [1]	metabolism by human intestinal microsomes ([2]; female, human) [ml/min/mg protein]	bio-transformation products formed by intestinal microflora [3]	rate of metabolism by human hepatocytes (human hepatocytes; female, human) [ml/min/million cells]	Papp [4] [×10⁻⁶ cm/s]	osteoclast differentiation (Raw264.7 cells)	further results
Oc1ccc([C@H]2COc3cc(O)ccc3C2)cc1 [Equol]	< 0.03	1.07E-4	most resistant to bio-transformation	1.21E-5	–	–	isoflavone left in the incubation media [3]: over 60%
O=c1c(-c2ccc(O)cc2)coc2cc(O[C@@H]3O[C@H](CO)[C@@H](O)[C@H](O)[C@H]3O)cc(O)c12 [Genistin]	–	–	–	–	0.346	–	–
O=c1c(-c2ccc(O)cc2)coc2cc(O)ccc12 [Daidzein]	~0.2	6.32E-5	–	4.07E-6	–	stimulating osteoclast differentiation	Papp (in vitro): 26.6 ×10⁻⁶ cm/s
COc1ccc(-c2coc3cc(O[C@@H]4O[C@H](CO)[C@@H](O)[C@H](O)[C@H]4O)ccc3c2=O)cc1 [Ononin]	–	–	–	–	0.122	–	–
O=c1c(-c2ccc(O)cc2)coc2cc(O[C@@H]3O[C@H](CO)[C@@H](O)[C@H](O)[C@H]3O)ccc12 [Daidzin]	–	–	–	–	0.536	–	–
COc1ccc(-c2coc3cc(O[C@@H]4O[C@H](CO)[C@@H](O)[C@H](O)[C@H]4O)cc(O)c3c2=O)cc1 [Biochanin A glucoside]	–	–	–	–	–	–	Mean Peff (Caco-2): 0.0164 ×10⁻⁶ cm/s
O=c1c(-c2ccc(O)cc2)coc2cc(O)cc(O)c12 [Genistein]	< 0.03	–	–	–	27.5	stimulating osteoclast differentiation	metabolism by human intestinal microsomes ([2]; isoflavone mixtures, glucuronidation, female origin): 4.28E-4 ml/min/mg protein; bio-transformation products formed by intestinal microflora ([3]; 100 μM, anaerobic, 37° C., up to 120 h): dihydrogenistein; rate of metabolism by human hepatocytes (human hepatocytes; isoflavone mixtures, female origin): 5.14E-6 ml/min/million cells
COc1ccc(-c2coc3cc(O)cc(O)c3c2=O)cc1 [Biochanin A]	–	–	dihydrobiochanin A, genistein, and dihydrogenistein	–	–	highest inhibition	Biochanin A saturation concentration ([5]; in the presence of 200 μg/mL daidzein): about 8.7 μg/mL; Biochanin A saturation concentration ([5]; in the presence of 200 μg/mL genistein): about 24.2 μg/mL; Biochanin A saturation concentration ([5]; in the presence of 400 μg/mL formononetin): about 4.5 μg/mL; Plasma protein binding (plasma protein): over 97%; metabolism by human intestinal microsomes [2]: 5.41E-4 ml/min/mg protein; Mean Peff (Caco-2): 10.8 ×10⁻⁶ cm/s; ALP activity (osteoblast differentiation) (MC3T3 cells): highest ALP activity; rate of metabolism by human hepatocytes (human hepatocytes): 8.88E-6 ml/min/million cells
COc1ccc(-c2coc3cc(O)ccc3c2=O)cc1 [Formononetin]	< 0.03	7.31E-5	dihydroformononetin, dihydrodaidzein, daidzein, and equol	3.45E-6	22	–	solubility thermodynamic at 24 h ([5]; 37 °C, fassif, thermodynamic from solid): ~2 µg/mL (≈ 7.46 µM); isoflavone left in the incubation media [3]: over 20%
